Data from patent publication US9884851B2, “Heterocycle-bisamide inhibitors of scavenger receptor BI” (THE BROAD INSTITUTE, INC., priority 2012, dated 2018).
Changes are numbered by the printed parent chain. ≈ marks a conversion by molar mass, not a printed value. Entries after “also recorded” stand apart in the source; their conditions may differ.

Tests used:
C384S SR-BI = biological target: T1, C384S SR-BI (Mus musculus, UniProt Q61009, C384S); experiment: Radioactive HDL uptake assay (mutant SR-BI); type: cell-based, murine; conditions: Cys384 converted to serine
T1 construct: expressed in transfected cells; host or cells: CHO cell line lacking LDL receptors, overexpressing C384S SR-BI
T1 sequence (Q61009 1-509 C384S): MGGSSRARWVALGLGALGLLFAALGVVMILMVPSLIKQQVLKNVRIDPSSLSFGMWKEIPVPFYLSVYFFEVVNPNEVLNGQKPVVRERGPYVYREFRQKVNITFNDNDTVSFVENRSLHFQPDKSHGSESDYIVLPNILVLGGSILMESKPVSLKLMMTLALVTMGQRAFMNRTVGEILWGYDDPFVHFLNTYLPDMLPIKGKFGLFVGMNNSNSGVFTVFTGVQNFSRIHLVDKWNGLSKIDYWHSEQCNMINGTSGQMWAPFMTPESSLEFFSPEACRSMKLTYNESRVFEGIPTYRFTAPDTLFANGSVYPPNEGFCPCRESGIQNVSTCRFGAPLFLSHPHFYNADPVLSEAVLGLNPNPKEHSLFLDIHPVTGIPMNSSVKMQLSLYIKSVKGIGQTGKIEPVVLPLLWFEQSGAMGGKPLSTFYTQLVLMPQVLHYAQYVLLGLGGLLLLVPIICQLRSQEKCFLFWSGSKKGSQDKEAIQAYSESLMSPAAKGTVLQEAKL
Source text: Radioactive HDL Uptake Assay (mutant SR-BI) (SA 9: AID No. 588837)
BLT-1 is known to interact at cysteine 384 of SR-BI (16). […] This assay is used to determine if the compounds work in a similar fashion to BLT-1 and require Cys384 to alter the binding of HDL particles and uptake of the lipid to the mutant SR-BI scavenger receptor, using an alternative means of labeling HDL particles and avoiding any type of fluorescence measurement. To measure this lipid uptake event, HDL particles are labeled with [^3H]cholesteryl ester and added to C384S SR-BI cells. Cells take up HDL lipid via the mutant SR-BI in 2 to 3 hours. After significant uptake of the HDL lipid, the radiolabel can be detected by liquid scintillation counting. The level of radioactivity correlates with the amount of HDL lipid uptake. The uptake of lipid from HDL particles can be inhibited by the compound BLT-1 or when co-treated with an excess of unlabeled HDL. The mSR-BI cells utilized in the assay are a CHO cell line lacking expression of the LDL receptors and overexpressing the mutant scavenger receptor, C384S SR-BI.

Stability in PBS = type: physicochemical; conditions: 1% DMSO, over 48 hours
Description: (§1) We noticed that the concentration of the probe fluctuated through the course of the assay (data not shown). We believe that this fluctuation is due to the low kinetic solubility of the probe. Thus, we decided to determine the amount of undissolved probe present in the well after it was treated with PBS for a given length of time, relative to the amount of undissolved probe at the start of the assay. The wells were centrifuged and the supernatant was removed after various time points, then acetonitrile was added to dissolve the remaining solid in the wells, and the amount of probe was quantified. […] The stability of the probe was confirmed by measuring stability in human plasma, with >99% remaining after a 5-hour incubation period. […] FIG. 5 summarizes known properties of the probe.

Plasma protein binding = type: in vitro ADME; conditions: human plasma; read-out: plasma protein binding (PPB), bound (converted)
Solubility in PBS = type: physicochemical; conditions: PBS pH 7.4, 23° C., 1% DMSO
Description: as §1

[1] = Stability in human plasma; type: in vitro ADME; conditions: 5-hour incubation
Description: as §1

[2] = biological target: T2, purified SR-BI (mSR-BI-t1) (Mus musculus, UniProt Q61009); experiment: Lipid transport assay in liposomes; type: biochemical, murine; conditions: [3H]CE uptake into SR-BI liposomes
T2 construct: made in house; host or cells: HEK293S GnTI-defective cells, tetracycline-inducible promoter
T2 sequence (Q61009 1-509): T1 sequence (Q61009 1-509 C384S) with S384C
Source text: This assay provides confirmation of activity via SR-BI by measuring the uptake of [^3H]cholesteryl ester ([^3H]CE) into liposomes loaded with purified SR-BI. For the purification of C-terminally epitope-tagged murine SR-BI (mSR-BI-t1) with uniform, truncated N-linked oligosaccharide chains, we overexpressed mSR-BI-t1 in HEK293S cells. The mSR-BI-t1 was expressed in an N-acetylglucosaminyltransferase I (GnTI)-defective HEK293S derivative, HEK293S GnTI (2), which generates a glycoprotein with uniform, truncated N-linked oligosaccharide chains under the control of a tetracycline-inducible promoter. mSR-BI-t1 was immunoaffinity purified to virtual homogeneity, and the detergent-solubilized receptor was reconstituted into liposomes. Subsequently, the in vitro SR-BI-mediated selective uptake of [^3H]CE from [^3H]CE-HDL in the reconstituted liposomes was measured. […] Briefly, 20 μg of SR-BI (or an equivalent volume of protein-free buffer to generate control liposomes that are devoid of SR-BI) was reconstituted into liposomes by acetone precipitation. […] Incubation was continued for 4 hours at 37° C., and then selective uptake of [^3H]CE into liposomes was determined using the previously described filter binding assays (15). SR-BI-selective uptake values were determined.

SR-BI = biological target: T3, SR-BI (Mus musculus, UniProt Q61009); experiment: Cholesterol efflux assay; type: cell-based, murine; parameters: expressed in transfected cells; host or cells: ldlA[mSR-BI], Chinese hamster ovary (CHO) cells lacking LDL receptor (Krieger Laboratory); conditions: for inhibition of efflux of free cholesterol (in words): efflux to HDL
T3 sequence (Q61009 1-509): T1 sequence (Q61009 1-509 C384S) with S384C
Description: SR-BI also mediates bidirectional flux (e.g. efflux) of unesterified or ‘free’ cholesterol (FC) between cells and HDL or other acceptors. This assay is used to determine if the compounds alter the efflux of free cholesterol to HDL.
On Day 0, 50,000 cells per well were plated in 24-well plates. On the following day, the media was removed and [^3H]cholesterol in lipoprotein-deficient media was added. On Day 1, the medium was replaced with Ham's F12 medium supplemented with 10% bovine lipoprotein deficient serum with 1 μCi/ml [1,2-^3H]cholesterol (40-60 Ci/mmol). On Day 3, the cells were washed to remove serum and incubated in Ham's F12 plus 1% fatty acid-free BSA. On Day 4, the cells were washed and pretreated with compounds for 1 hour. Subsequently, the cells were incubated for an additional 2 hours with the same concentrations of small molecules and with unlabeled HDL (final HDL concentration of 100 μg protein/ml). The medium was collected to determine released cholesterol, and the cells were lysed. The amount of [^3H]cholesterol in the medium and cells was determined using liquid scintillation counting. Total cellular [^3H]cholesterol was calculated as the sum of the radioactivity in the efflux medium plus the radioactivity in the cells and was used to calculate the [^3H]cholesterol efflux (percent of total [^3H]cholesterol released into the medium).

Structure (SMILES) | uptake of HDL in C384S mutant background (in words) (C384S SR-BI) | stability in PBS (in words) (Stability in PBS) | fraction unbound (Plasma protein binding) | solubility (Solubility in PBS; listed as CID53393835) | solubility (Solubility in PBS; phosphate buffered saline, 23 °C, pH 7.4, aqueous buffer, kinetic from dmso stock) | stability in human plasma, remaining [1] | interaction with SR-BI in purified liposomes (in words) [2] | reduction of efflux of free cholesterol from cells (SR-BI) | inhibition of efflux of free cholesterol (in words) (SR-BI) | inhibition of efflux of free cholesterol (in words) (SR-BI; listed as compound of Formula (II))
CCCCCCC1CCCC1=NNC(N)=S (centres unmarked) [BLT-1, reference compound] | cannot reduce uptake of HDL or efflux of cholesterol |  |  |  |  |  |  |  |  | 
C[C@H](C(=O)NC1CCCC1)N(C(=O)Cn1nnc(-c2ccc3c(c2)OCO3)n1)C1CCCCC1 [ML279, (R)-2-(2-(5-(Benzo[d][1,3]dioxol-5-yl)-2H-tetrazol-2-yl)-N-cyclohexylacetamido)-N-cyclopentylpropanamide] | can reduce uptake and efflux in the mutant background | stable to PBS | 0.235 | 27 µM (≈ 12.7 µg/mL) | 28 µM (≈ 13.1 µg/mL) | > 99% | direct interaction between the probe and SR-BI | about 50% | inhibiting both SR-BI-mediated uptake of cholesteryl ester from HDL and efflux of free cholesterol to HDL particles; also recorded: inhibits efflux of free cholesterol | inhibit efflux of cholesterol
